Experimental data as given in patent US9591978B2, “Methods and compositions for pre-screening patients for treatment with noribogaine” (DemeRX, Inc., priority 2014, dated 2017).
“Also recorded” adds a separate entry of the source.

Columns and labels:
[1] = Pharmacokinetics in opioid-dependent patients (Phase IB study); details: 60-180 mg
[2] = test system: opioid-dependent participants; assay: QT interval prolongation in opioid-dependent patients; assay type: in vivo, human
Experimental: Patients' QT intervals were evaluated at regular time points throughout the study.

[3] = test system: healthy, drug-free male volunteers; assay: Cold pressor test (analgesic effect) in healthy volunteers; assay type: in vivo, human
Experimental: Analgesic effect was assessed based on duration of hand immersion in ice water and on visual analog scale (VAS) pain scores upon hand removal from the water bath.
(§1) Safety and tolerability of noribogaine were tested in the group of volunteers from Example 1. […] Safety evaluations included clinical monitoring, recording of adverse events (AEs), safety laboratory tests, vital signs, ECG telemetry from −2 h to 6 h after dosing, and 12-lead electrocardiograms (ECGs) up to 216 hours post-dosing.

[4] = test system: opioid-dependent participants; assay: Time to resumption of opioid substitution treatment (OST); assay type: in vivo, human; details: for therapeutic response: methadone addicted patients
[5] = test system: healthy, drug-free male volunteers; assay: Pupillometry (pupillary miosis) in healthy volunteers; assay type: in vivo, human
Experimental: (§2) Pulse oximetry and capnography data were collected continuously using a GE Carescape B650 monitoring system from 2 hours prior to dosing and until six hours after dosing, and thereafter at 12, 24, 48 and 72 hours post-dosing. […] Pupillary miosis was assessed by pupillometry.
Summary statistics (means, standard deviations, and coefficients of variation) were determined for each dose group for safety laboratory test data, ECG and pharmacokinetic parameters, and pharmacodynamic variables. Categorical variables were analysed using counts and percentages. Dose-proportionality of AUC and Cmax was assessed using linear regression. The effect of dose on pharmacodynamic parameter values over time was assessed using two-factor analysis of variance (ANOVA). Pairwise comparisons (with Tukey-Kramer adjustment) between each dose group to the placebo were conducted at each time point using the least squares estimates obtained from the ANOVA, using SAS Proc Mixed (SAS ver 6.0).

[6] = test system: opioid-dependent participants; assay: Opiate withdrawal scales (COWS, SOWS, OOWS); assay type: in vivo, human; details: first six hours following dosing
Experimental: Patients were evaluated based on the Clinical Opiate Withdrawal Scale (COWS), Subjective Opiate Withdrawal Scale (SOWS), and Objective Opiate Withdrawal Scale (OOWS) scoring systems over the period of time between administration of noribogaine (or placebo) until resumption of OST. These scales are outlined in Guidelines for the Psychosocially Assisted Pharmacological Treatment of Opioid Dependence, World Health Organization, Geneva (2009), Annex 10, which is incorporated herein by reference in its entirety. The scales measure the intensity of withdrawal symptoms, based on clinical, subjective, and objective indicia.

[7] = Pharmacokinetics of noribogaine in healthy volunteers (plasma, LCMSMS); details: for CL/F: healthy male volunteers, fasted, n = 6, mean (SD); for mean AUC/24 hr / mean AUC/24: fasting conditions
[8] = test system: healthy, drug-free male volunteers; assay: Safety and tolerability of noribogaine in healthy humans; assay type: in vivo, human
Experimental: as §2, §1

[9] = test system: opioid-dependent participants; assay: Treatment emergent adverse events in opioid-dependent participants
[10] = after adjusting for baseline, p>0.9
[11] = opioid-dependent participants, 60, 120, 180 mg
[12] = opioid-dependent patients, single 60 mg noribogaine dose, N = 6
[13] = opioid-dependent patients, single 120 mg noribogaine dose, N = 6
[14] = opioid-dependent patients, single 180 mg noribogaine dose, N = 6

Question: What does the source list for `CC[C@H]1CC2C[C@H]3c4[nH]c5ccc(O)cc5c4CCN(C2)C13` [noribogaine]?
Answer: maximum serum concentration (Cmax) versus dose [1]: increased in a dose-dependent manner; QT interval prolongation (ΔQTcl) versus dose and serum concentration ([2]; 60, 120, 180 mg, first 24 hours post administration): dose-dependent increase in QT interval prolongation; relation of QT interval prolongation to dose ([2]; doubling the dose gives about a doubling of the prolongation): linear pattern; QT interval in some patients ([2]; patients receiving 120 mg): greater than 500 ms; QT interval prolongation in some patients ([2]; patients receiving 120 mg): greater than 50 ms; average QT interval prolongation ([2]; patients receiving 120 mg): approximately 38 ms; VAS pain scores, each dose group vs placebo by ANOVA ([3]; after adjusting for baseline, p=0.17): no statistically significant differences; duration of hand immersion, each dose group vs placebo by ANOVA [3, 10]: no statistically significant differences; analgesic effect in the cold pressor test ([3]; healthy volunteers, 3-60 mg single oral dose, 1° C. water): no analgesic effect; time to resumption of opioid substitution therapy compared with 60 mg ([4]; 120 mg): significantly longer; time to resumption of OST compared with untreated patients or 60 mg noribogaine ([4]; 180 mg): still longer; therapeutic response ([4]; single 60 mg dosing): generally does not provide a meaningful therapeutic response; therapeutic response ([4]; single 120 mg dosing): generally provides a meaningful therapeutic response; average time to resumption of opioids ([4]; single 120 mg dose): greater than 20 hours; pupil diameter, each dose group vs placebo by ANOVA [5, 10]: no statistically significant differences; pupillary constriction ([5]; healthy volunteers, 3-60 mg single oral dose): no evidence of pupillary constriction; withdrawal symptoms (COWS, OOWS, SOWS) ([6]; 120 mg): generally experienced fewer withdrawal symptoms than the other patients; withdrawal symptoms compared with placebo (COWS, OOWS, SOWS) ([6]; 60, 120, 180 mg): Patients administered placebo generally experienced more withdrawal symptoms than patients who were administered noribogaine; CL/F ([7]; single oral 3 mg noribogaine): 41.4 (7.0) L/h; CL/F ([7]; single oral 10 mg noribogaine): 42.3 (12.0) L/h; CL/F ([7]; single oral 30 mg noribogaine): 46.9 (16.4) L/h; CL/F ([7]; single oral 60 mg noribogaine): 34.0 (11.4) L/h; dose-proportionality of Cmax and AUC ([7]; healthy volunteers, 3-60 mg): increased linearly with dose; time of peak concentrations after oral dosing ([7]; healthy volunteers, across 3-60 mg dose groups): 2 to 3 h; mean half-life estimates ([7]; healthy volunteers, across dose groups): 28 to 50 h; mean AUC/24 hr ([7]; single dose of 3 mg noribogaine free base): 3.1 ng/mL; mean AUC/24 hr ([7]; single dose of 10 mg noribogaine free base): 10.6 ng/mL; mean AUC/24 ([7]; single dose of 30 mg noribogaine free base): 29.2 ng/mL; mean AUC/24 ([7]; single dose of 60 mg noribogaine free base): 61 ng/mL; adverse events reported ([8]; 3 mg dose group, by two subjects): five; adverse events reported ([8]; 10 mg dose group, single subject): one; adverse events reported ([8]; 30 mg dose group, single subject): one; intensity of adverse events ([8]; all adverse events of the study, all resolved prior to study completion): mild-moderate; Adverse events: Mild ([8]; healthy volunteers, 3 mg): Dizziness; also recorded: Epistaxis; also recorded: Headache; also recorded: Back pain; Adverse events: Moderate ([8]; healthy volunteers, 3 mg): Headache; Adverse events: Mild ([8]; healthy volunteers, 10 mg): Headache; Adverse events: Mild ([8]; healthy volunteers, 30 mg): Headache; oximetry, capnography, respiratory rate ([8]; healthy volunteers, 3-60 mg): no changes in oximetry or capnography, or changes in respiratory rate; vital signs and safety laboratory tests ([8]; healthy volunteers, 3-60 mg): no changes in vital signs or safety laboratory tests of note; QTcF values ([8]; healthy volunteers, at any time): ≤ 500 ms; increase in QTcF ([8]; one subject dosed with 10 mg, single increase at 24 hours post-dosing): > 60 ms; headaches ([9]; 60 mg noribogaine treatment group): frequent; headaches ([9]; 120 mg dose group): attenuated; headaches ([9]; 180 mg dose group): attenuated; adverse effects observed [9, 11]: Few adverse effects; hallucinatory effects [9, 11]: no hallucinatory effects; Treatment emergent adverse events: Catheter Site Infection [9, 12]: 0; Treatment emergent adverse events: Catheter Site Pain [9, 12]: 0; Treatment emergent adverse events: Catheter Site Related Reaction [9, 12]: 0; Treatment emergent adverse events: Cellulitis [9, 12]: 0; Treatment emergent adverse events: Diarrhoea [9, 12]: 0; Treatment emergent adverse events: Dry Mouth [9, 12]: 0; Treatment emergent adverse events: Ear and Labyrinth Disorders [9, 12]: 0; Treatment emergent adverse events: Epistaxis [9, 12]: 0; Treatment emergent adverse events: Euphoric Mood [9, 12]: 0; Treatment emergent adverse events: General Disorders and Administration Site Conditions [9, 12]: 0; Treatment emergent adverse events: Hyperaesthesia [9, 12]: 0; Treatment emergent adverse events: Infections and Infestations [9, 12]: 0; Treatment emergent adverse events: Limb Discomfort [9, 12]: 0; Treatment emergent adverse events: Malaise [9, 12]: 0; Treatment emergent adverse events: Nausea [9, 12]: 0; Treatment emergent adverse events: Oropharyngeal Pain [9, 12]: 0; Treatment emergent adverse events: Pseudoparalysis [9, 12]: 0; Treatment emergent adverse events: Respiratory, Thoracic and Mediastinal Disorders [9, 12]: 0; Treatment emergent adverse events: Rhinorrhoea [9, 12]: 0; Treatment emergent adverse events: Skin Discomfort [9, 12]: 0; Treatment emergent adverse events: Skin Irritation [9, 12]: 0; Treatment emergent adverse events: Skin and Subcutaneous Tissue Disorders [9, 12]: 0; Treatment emergent adverse events: Somnoience [9, 12]: 0; Treatment emergent adverse events: Tinnitus [9, 12]: 0; Treatment emergent adverse events: Tremor [9, 12]: 0; Treatment emergent adverse events: Urinary Tract Infection [9, 12]: 0; Treatment emergent adverse events: Vomiting [9, 12]: 0; Treatment emergent adverse events: Back Pain [9, 13]: 0; Treatment emergent adverse events: Catheter Site Infection [9, 13]: 0; Treatment emergent adverse events: Catheter Site Related Reaction [9, 13]: 0; Treatment emergent adverse events: Depressed Mood [9, 13]: 0; Treatment emergent adverse events: Dry Eye [9, 13]: 0; Treatment emergent adverse events: Dyspepsia [9, 13]: 0; Treatment emergent adverse events: Euphoric Mood [9, 13]: 0; Treatment emergent adverse events: Limb Discomfort [9, 13]: 0; Treatment emergent adverse events: Malaise [9, 13]: 0; Treatment emergent adverse events: Musculoskeletal and Connective Tissue Disorders [9, 13]: 0; Treatment emergent adverse events: Psychiatric Disorders [9, 13]: 0; Treatment emergent adverse events: Somnoience [9, 13]: 0; Treatment emergent adverse events: Urinary Tract Infection [9, 13]: 0; Treatment emergent adverse events: Catheter Site Infection [9, 14]: 0; Treatment emergent adverse events: Catheter Site Pain [9, 14]: 0; Treatment emergent adverse events: Depressed Mood [9, 14]: 0; Treatment emergent adverse events: Diarrhoea [9, 14]: 0; Treatment emergent adverse events: Dry Eye [9, 14]: 0; Treatment emergent adverse events: Dyspepsia [9, 14]: 0; Treatment emergent adverse events: Ear and Labyrinth Disorders [9, 14]: 0; Treatment emergent adverse events: Epistaxis [9, 14]: 0; Treatment emergent adverse events: Euphoric Mood [9, 14]: 0; Treatment emergent adverse events: Hyperaesthesia [9, 14]: 0; Treatment emergent adverse events: Malaise [9, 14]: 0; Treatment emergent adverse events: Oropharyngeal Pain [9, 14]: 0; Treatment emergent adverse events: Pseudoparalysis [9, 14]: 0; Treatment emergent adverse events: Psychiatric Disorders [9, 14]: 0; Treatment emergent adverse events: Respiratory, Thoracic and Mediastinal Disorders [9, 14]: 0; Treatment emergent adverse events: Rhinorrhoea [9, 14]: 0; Treatment emergent adverse events: Skin Discomfort [9, 14]: 0; Treatment emergent adverse events: Skin Irritation [9, 14]: 0; Treatment emergent adverse events: Skin and Subcutaneous Tissue Disorders [9, 14]: 0; Treatment emergent adverse events: Somnoience [9, 14]: 0; Treatment emergent adverse events: Tinnitus [9, 14]: 0; Treatment emergent adverse events: Tremor [9, 14]: 0
